Test results published in the kinase profiling compilation of Christmann-Franck et al. (2016).

Legend:
Experiment in all cases: KINOMEscan competition binding
Conditions in all cases: compound 10.0 µM
[1] = target: STK38 (human) (UniProt Q15208)
[2] = target: GSK3B (human) (UniProt P49841)
[3] = target: EGFR (human) (UniProt P00533)
[4] = target: BMPR2 (human) (UniProt Q13873)
[5] = target: DDR2 (human) (UniProt Q16832)
[6] = target: SLK (human) (UniProt Q9H2G2)
[7] = target: HIPK1 (human) (UniProt Q86Z02)
[8] = target: MAPK4 (human) (UniProt P31152)
[9] = target: TEK (human) (UniProt Q02763)
[10] = target: MYO3A (human) (UniProt Q8NEV4)
[11] = target: HUNK (human) (UniProt P57058)
[12] = target: BRSK2 (human) (UniProt Q8IWQ3)
[13] = target: MYLK3 (human) (UniProt Q32MK0)
[14] = target: MAP4K4 (human) (UniProt O95819)
[15] = target: DAPK1 (human) (UniProt P53355)
[16] = target: ULK3 (human) (UniProt Q6PHR2)
[17] = target: STK4 (human) (UniProt Q13043)
[18] = target: CSNK1G1 (human) (UniProt Q9HCP0)
[19] = target: PTK2 (human) (UniProt Q05397)
[20] = target: MAPK3 (human) (UniProt P27361)
[21] = target: TTK (human) (UniProt P33981)
[22] = target: MAP3K5 (human) (UniProt Q99683)
[23] = target: ANKK1 (human) (UniProt Q8NFD2)
[24] = target: DYRK2 (human) (UniProt Q92630)
[25] = target: MUSK (human) (UniProt O15146)
[26] = target: SGK110 (human) (UniProt P0C264)
[27] = target: CDKL5 (human) (UniProt O76039)
[28] = target: AURKC (human) (UniProt Q9UQB9)
[29] = target: EPHA7 (human) (UniProt Q15375)
[30] = target: RPS6KA6 KD1 (human) (UniProt Q9UK32)
[31] = target: PRKD2 (human) (UniProt Q9BZL6)
[32] = target: ULK1 (human) (UniProt O75385)
[33] = target: MINK1 (human) (UniProt Q8N4C8)
[34] = target: STK10 (human) (UniProt O94804)
[35] = target: JAK3 JH1 catalytic (human) (UniProt P52333)
[36] = target: KDR (human) (UniProt P35968)
[37] = target: CSNK2A2 (human) (UniProt P19784)
[38] = target: CDK4 CCND3 (human) (UniProt P11802+P30281)
[39] = target: STK32A (human) (UniProt Q8WU08)
[40] = target: NEK4 (human) (UniProt P51957)

Sequence of MAPK3 (human) (P27361 whole entry, looked up): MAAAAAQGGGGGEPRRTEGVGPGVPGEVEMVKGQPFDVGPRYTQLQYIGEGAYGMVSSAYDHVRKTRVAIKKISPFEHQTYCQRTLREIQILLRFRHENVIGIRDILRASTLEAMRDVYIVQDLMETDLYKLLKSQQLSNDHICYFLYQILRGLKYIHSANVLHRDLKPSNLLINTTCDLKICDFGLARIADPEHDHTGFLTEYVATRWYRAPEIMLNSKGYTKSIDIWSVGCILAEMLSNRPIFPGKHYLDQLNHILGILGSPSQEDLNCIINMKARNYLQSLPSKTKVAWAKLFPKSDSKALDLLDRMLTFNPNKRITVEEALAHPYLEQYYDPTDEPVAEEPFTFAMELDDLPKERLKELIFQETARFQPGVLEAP
Sequence of HUNK (human) (P57058 whole entry, looked up): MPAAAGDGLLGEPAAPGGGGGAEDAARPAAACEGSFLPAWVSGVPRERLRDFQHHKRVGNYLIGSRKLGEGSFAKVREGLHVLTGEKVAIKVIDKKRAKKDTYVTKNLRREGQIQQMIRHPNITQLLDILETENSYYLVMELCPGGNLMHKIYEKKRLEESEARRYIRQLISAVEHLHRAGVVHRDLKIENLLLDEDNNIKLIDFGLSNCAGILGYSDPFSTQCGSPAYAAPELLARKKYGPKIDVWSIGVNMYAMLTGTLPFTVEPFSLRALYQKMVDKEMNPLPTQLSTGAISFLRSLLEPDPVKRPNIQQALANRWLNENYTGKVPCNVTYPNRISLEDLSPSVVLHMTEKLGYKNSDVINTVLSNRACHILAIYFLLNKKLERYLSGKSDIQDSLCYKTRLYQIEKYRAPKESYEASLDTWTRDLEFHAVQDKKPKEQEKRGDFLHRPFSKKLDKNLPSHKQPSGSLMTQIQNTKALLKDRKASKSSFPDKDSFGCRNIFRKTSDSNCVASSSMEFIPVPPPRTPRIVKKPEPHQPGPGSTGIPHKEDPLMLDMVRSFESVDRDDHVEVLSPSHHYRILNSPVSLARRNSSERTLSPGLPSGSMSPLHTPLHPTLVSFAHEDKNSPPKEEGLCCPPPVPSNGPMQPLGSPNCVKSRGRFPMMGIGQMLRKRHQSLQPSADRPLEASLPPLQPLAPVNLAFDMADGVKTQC
Sequence of HIPK1 (human) (Q86Z02 whole entry, looked up): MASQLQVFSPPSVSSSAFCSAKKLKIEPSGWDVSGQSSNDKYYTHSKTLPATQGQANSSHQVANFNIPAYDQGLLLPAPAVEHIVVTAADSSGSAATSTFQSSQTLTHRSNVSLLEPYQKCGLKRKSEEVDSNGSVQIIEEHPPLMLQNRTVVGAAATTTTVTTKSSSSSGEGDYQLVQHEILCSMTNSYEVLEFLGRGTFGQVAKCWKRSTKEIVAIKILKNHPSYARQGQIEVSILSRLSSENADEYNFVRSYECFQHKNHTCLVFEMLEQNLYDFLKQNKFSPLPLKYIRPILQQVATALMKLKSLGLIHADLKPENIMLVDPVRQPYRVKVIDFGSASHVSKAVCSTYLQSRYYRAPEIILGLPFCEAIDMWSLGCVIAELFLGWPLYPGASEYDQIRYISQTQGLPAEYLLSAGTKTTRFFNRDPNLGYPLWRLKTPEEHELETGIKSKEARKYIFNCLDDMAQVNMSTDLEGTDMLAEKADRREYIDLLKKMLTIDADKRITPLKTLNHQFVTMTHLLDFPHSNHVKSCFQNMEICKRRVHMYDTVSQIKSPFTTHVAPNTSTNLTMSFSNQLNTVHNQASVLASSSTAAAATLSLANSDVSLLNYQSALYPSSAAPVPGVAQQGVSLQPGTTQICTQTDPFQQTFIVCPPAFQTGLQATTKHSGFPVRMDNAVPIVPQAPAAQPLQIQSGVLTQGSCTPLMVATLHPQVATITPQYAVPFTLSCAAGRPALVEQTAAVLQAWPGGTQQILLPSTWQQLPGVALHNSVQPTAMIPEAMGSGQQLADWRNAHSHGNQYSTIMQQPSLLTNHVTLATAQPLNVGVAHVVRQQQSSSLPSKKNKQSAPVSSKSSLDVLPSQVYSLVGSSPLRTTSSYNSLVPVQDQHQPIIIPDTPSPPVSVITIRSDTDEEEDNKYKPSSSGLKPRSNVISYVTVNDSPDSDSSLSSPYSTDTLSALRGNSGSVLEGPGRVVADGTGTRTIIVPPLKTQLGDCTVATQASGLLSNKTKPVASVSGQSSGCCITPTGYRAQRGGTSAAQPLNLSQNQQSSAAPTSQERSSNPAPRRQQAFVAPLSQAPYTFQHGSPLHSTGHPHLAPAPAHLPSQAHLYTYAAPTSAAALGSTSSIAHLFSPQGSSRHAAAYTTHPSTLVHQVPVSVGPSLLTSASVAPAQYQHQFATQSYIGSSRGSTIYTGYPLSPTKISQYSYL
Sequence of DYRK2 (human) (Q92630 whole entry, looked up): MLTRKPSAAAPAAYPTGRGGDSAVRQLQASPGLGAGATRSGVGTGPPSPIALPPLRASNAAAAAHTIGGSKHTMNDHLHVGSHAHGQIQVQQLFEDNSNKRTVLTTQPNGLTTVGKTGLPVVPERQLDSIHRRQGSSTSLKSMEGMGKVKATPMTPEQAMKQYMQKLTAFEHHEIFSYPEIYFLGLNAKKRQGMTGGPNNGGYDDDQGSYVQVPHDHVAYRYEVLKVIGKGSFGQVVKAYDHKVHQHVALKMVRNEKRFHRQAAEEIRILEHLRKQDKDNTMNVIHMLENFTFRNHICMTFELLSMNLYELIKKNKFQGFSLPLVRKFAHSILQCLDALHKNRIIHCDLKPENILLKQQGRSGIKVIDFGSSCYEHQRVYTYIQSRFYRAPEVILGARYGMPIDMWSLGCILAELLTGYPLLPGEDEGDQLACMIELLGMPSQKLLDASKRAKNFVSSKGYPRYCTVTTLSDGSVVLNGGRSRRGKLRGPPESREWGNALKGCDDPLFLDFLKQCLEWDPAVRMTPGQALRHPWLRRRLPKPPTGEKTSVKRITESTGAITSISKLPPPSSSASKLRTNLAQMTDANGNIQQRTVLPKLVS
Sequence of RPS6KA6 KD1 (human) (Q9UK32 whole entry, looked up): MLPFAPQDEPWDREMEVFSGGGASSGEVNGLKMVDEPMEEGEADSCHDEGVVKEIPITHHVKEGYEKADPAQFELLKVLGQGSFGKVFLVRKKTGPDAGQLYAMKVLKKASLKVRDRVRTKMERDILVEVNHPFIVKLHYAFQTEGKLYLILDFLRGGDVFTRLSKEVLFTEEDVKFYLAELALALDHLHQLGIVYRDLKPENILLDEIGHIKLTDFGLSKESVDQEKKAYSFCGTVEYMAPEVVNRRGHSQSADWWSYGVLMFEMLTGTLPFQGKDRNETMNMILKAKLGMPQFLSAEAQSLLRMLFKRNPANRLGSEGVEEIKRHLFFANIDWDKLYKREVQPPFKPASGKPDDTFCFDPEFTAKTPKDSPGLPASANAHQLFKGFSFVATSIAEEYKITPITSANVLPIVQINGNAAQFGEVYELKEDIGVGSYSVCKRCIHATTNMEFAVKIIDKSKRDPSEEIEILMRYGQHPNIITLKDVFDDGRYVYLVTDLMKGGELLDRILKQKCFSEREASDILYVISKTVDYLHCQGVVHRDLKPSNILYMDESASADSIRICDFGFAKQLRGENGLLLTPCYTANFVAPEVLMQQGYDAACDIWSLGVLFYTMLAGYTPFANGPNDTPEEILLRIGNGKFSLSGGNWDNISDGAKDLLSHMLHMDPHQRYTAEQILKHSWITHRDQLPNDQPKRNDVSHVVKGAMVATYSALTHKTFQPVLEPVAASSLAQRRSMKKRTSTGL
Sequence of STK38 (human) (Q15208 whole entry, looked up): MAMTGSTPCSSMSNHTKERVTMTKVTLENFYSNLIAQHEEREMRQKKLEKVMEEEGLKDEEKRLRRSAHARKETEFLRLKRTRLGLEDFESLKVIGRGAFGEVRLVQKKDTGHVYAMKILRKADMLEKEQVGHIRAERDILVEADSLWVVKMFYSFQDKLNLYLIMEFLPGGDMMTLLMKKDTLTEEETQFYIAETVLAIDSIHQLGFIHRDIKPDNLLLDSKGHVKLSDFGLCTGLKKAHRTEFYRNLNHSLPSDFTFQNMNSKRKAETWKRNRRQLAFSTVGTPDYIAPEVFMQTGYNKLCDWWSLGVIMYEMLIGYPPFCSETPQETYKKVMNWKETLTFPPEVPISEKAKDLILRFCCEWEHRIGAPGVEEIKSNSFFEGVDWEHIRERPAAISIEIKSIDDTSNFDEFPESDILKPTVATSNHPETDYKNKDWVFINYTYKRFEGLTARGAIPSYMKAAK
Sequence of CDKL5 (human) (O76039 whole entry, looked up): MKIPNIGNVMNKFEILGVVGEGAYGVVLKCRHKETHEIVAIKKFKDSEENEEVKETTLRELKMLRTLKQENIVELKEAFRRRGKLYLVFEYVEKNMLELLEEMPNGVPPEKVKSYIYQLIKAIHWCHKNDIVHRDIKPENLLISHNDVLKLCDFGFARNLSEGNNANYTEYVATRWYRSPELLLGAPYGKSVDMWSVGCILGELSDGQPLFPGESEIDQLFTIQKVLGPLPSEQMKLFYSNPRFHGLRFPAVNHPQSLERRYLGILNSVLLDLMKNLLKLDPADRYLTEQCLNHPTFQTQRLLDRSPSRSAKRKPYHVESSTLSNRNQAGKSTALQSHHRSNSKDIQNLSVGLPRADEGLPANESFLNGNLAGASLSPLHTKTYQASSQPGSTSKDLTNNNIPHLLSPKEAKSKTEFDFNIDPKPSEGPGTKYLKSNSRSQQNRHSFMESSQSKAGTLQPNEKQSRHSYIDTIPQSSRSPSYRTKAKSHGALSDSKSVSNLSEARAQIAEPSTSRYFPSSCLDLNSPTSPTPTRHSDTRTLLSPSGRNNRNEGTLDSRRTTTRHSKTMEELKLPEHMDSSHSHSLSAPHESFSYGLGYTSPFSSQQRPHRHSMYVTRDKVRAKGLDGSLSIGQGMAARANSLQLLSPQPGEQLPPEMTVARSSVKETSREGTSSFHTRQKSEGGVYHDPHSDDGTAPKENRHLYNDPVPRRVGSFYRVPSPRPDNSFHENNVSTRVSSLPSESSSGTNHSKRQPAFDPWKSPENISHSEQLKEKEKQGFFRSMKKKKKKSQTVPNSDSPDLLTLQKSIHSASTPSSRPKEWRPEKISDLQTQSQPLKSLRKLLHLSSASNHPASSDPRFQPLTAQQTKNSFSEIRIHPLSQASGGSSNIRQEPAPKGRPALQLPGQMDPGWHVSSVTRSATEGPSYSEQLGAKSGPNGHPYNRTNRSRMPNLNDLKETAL

SMILES	kinase still bound, per cent of control [1]	kinase still bound, per cent of control [2]	kinase still bound, per cent of control [4]	kinase still bound, per cent of control [5]	kinase still bound, per cent of control [6]	kinase still bound, per cent of control [7]	kinase still bound, per cent of control [8]	kinase still bound, per cent of control [10]	kinase still bound, per cent of control [11]	kinase still bound, per cent of control [12]	kinase still bound, per cent of control [14]	kinase still bound, per cent of control [15]	kinase still bound, per cent of control [16]	kinase still bound, per cent of control [17]	kinase still bound, per cent of control [18]	kinase still bound, per cent of control [19]	kinase still bound, per cent of control [20]	kinase still bound, per cent of control [21]	kinase still bound, per cent of control [22]	kinase still bound, per cent of control [23]	other results
CS(=O)(=O)N1CCN(Cc2cc3nc(-c4cccc5[nH]ncc45)nc(N4CCOCC4)c3s2)CC1	100%	100%	100%	100%	100%	100%	100%	100%	100%	100%	100%	100%	100%	100%	100%	100%	100%	100%	100%	100%	kinase still bound, per cent of control [3]: 100%; kinase still bound, per cent of control [9]: 100%; kinase still bound, per cent of control [13]: 100%; kinase still bound, per cent of control [24]: 100%; kinase still bound, per cent of control [25]: 100%; kinase still bound, per cent of control [26]: 100%; kinase still bound, per cent of control [27]: 100%; kinase still bound, per cent of control [28]: 100%; kinase still bound, per cent of control [29]: 100%; kinase still bound, per cent of control [30]: 100%; kinase still bound, per cent of control [31]: 100%; kinase still bound, per cent of control [32]: 100%; kinase still bound, per cent of control [33]: 100%; kinase still bound, per cent of control [34]: 100%; kinase still bound, per cent of control [35]: 100%; kinase still bound, per cent of control [36]: 100%; kinase still bound, per cent of control [37]: 100%
CNC(=O)c1cc(Oc2ccc(NC(=O)Nc3ccc(Cl)c(C(F)(F)F)c3)cc2)ccn1	85%	100%	78%	14%	15%	13%	100%	67%	70%	85%	18%	99%	92%	81%	100%	99%	100%	15%	90%	100%	kinase still bound, per cent of control [38]: 79%; kinase still bound, per cent of control [24]: 95%; kinase still bound, per cent of control [25]: 0.1%; kinase still bound, per cent of control [26]: 94%; kinase still bound, per cent of control [27]: 56%; kinase still bound, per cent of control [28]: 100%; kinase still bound, per cent of control [29]: 25%; kinase still bound, per cent of control [31]: 96%; kinase still bound, per cent of control [39]: 100%; kinase still bound, per cent of control [32]: 100%; kinase still bound, per cent of control [33]: 46%; kinase still bound, per cent of control [34]: 0%; kinase still bound, per cent of control [35]: 58%; kinase still bound, per cent of control [37]: 100%; kinase still bound, per cent of control [40]: 81%
COc1cc(N2CCN(C)CC2)ccc1Nc1ncc2c(n1)N(C)c1ccccc1C(=O)N2C	100%	100%	100%	100%	100%	100%	100%	100%	100%	100%	100%	100%	100%	100%	100%	16%	100%	26%	100%	100%	kinase still bound, per cent of control [3]: 100%; kinase still bound, per cent of control [9]: 100%; kinase still bound, per cent of control [13]: 100%; kinase still bound, per cent of control [24]: 100%; kinase still bound, per cent of control [25]: 100%; kinase still bound, per cent of control [26]: 30%; kinase still bound, per cent of control [27]: 100%; kinase still bound, per cent of control [28]: 100%; kinase still bound, per cent of control [29]: 100%; kinase still bound, per cent of control [30]: 100%; kinase still bound, per cent of control [31]: 0.55%; kinase still bound, per cent of control [32]: 2.9%; kinase still bound, per cent of control [33]: 100%; kinase still bound, per cent of control [34]: 100%; kinase still bound, per cent of control [35]: 100%; kinase still bound, per cent of control [36]: 100%; kinase still bound, per cent of control [37]: 100%
CCN(CC)CCCCNc1ncc2c(n1)N(C)C(=O)N(c1c(Cl)c(OC)cc(OC)c1Cl)C2	100%	100%	100%	30%	100%	100%	100%	100%	100%	100%	100%	100%	100%	100%	100%	100%	100%	100%	100%	100%	kinase still bound, per cent of control [3]: 100%; kinase still bound, per cent of control [9]: 100%; kinase still bound, per cent of control [13]: 100%; kinase still bound, per cent of control [24]: 100%; kinase still bound, per cent of control [25]: 100%; kinase still bound, per cent of control [26]: 100%; kinase still bound, per cent of control [27]: 100%; kinase still bound, per cent of control [28]: 100%; kinase still bound, per cent of control [29]: 100%; kinase still bound, per cent of control [30]: 100%; kinase still bound, per cent of control [31]: 100%; kinase still bound, per cent of control [32]: 100%; kinase still bound, per cent of control [33]: 100%; kinase still bound, per cent of control [34]: 100%; kinase still bound, per cent of control [35]: 100%; kinase still bound, per cent of control [36]: 100%; kinase still bound, per cent of control [37]: 100%
